Experiments:
MCF7 cells = experiment: Drug loading vs toxicity at fixed [drug], MTT viability assay (Example 4); assay type: cell-based, human; settings: Drug only, without carrier; 0.058 mM MTN; 72 hours
Method: FIG. 1. […] NAC-MTN or NAC-DOX were prepared at different weight:weight % of drug:nucleic acid and incubated in cells. For each sample and corresponding % loading, the total drug was held constant at 0.058 mM MTN or 0.1 mM DOX. After incubation in cells, cell viability was assayed via mitochondrial dehydrogenase activity against 3-[4,5-dimethylthiazol-2-yl]-2,5-diphenyl tetrazolium bromide (MTT) and reported as % toxicity relative to untreated cells.
Mitoxantrone (MTN, Sigma Aldrich) and Doxorubicin HCl (DOX) were diluted in HBSS to 1 mg/ml final. DNA, from degraded herring sperm DNA <40 bp (HSDNA, Sigma Aldrich), was prepared in water at 10 mg/ml. The drug was diluted in water or HBSS first, followed by addition of the DNA, in order to prevent precipitation. Precipitation of drug was especially a concern at 40% loading of MTN, which is the loading limit for HSDNA (degraded) and so the DNA is added slowly to the diluted MTN (the reverse addition leads to precipitation). All NAC-MTN formulation stocks were prepared at 0.15 mg/ml final MTN, and different concentration of DNA in order to give 15, 25, and 35.7% final drug loading w/w % of MTN/DNA in 0.5 ml final volume. All NAC-DOX formulations were prepared at 0.3 mg/ml final DOX, and either 5, 10, or 15% loaded drug weight/weight % of DOX/DNA in 0.5 ml final volume. […]

3T3 = experiment: Cell uptake by MTN fluorescence EX620/EM680 (Examples 10 and 13, EX051605); assay type: cell-based, mouse; settings: 10% w/w loading in DNA
Method: Materials: HSGDNA, MTN, ODNAS1116 (phosphorothioated, single stranded DNA, and Beta-cyclodextrin polymer (BCD-SBE, KKBIOMED Inc.) were previously prepared in water at 10 mg/ml, 1 mg/ml, 0.95 mg/ml, and 10 mg/ml respectively.
Procedure: For NAC-MTN, combined 37 ul HSGDNA (herring genomic DNA, Promega Inc.), 1426 ul HBSS( Hank's buffered saline, Sigma-Aldrich), with 37 ul of MTN, followed by 1500 ul 2× DMEM media to give 3 ml final and 24 uM (24 micro-molar) MTN and 10% w/w drug loading of MTN. For NAC-MTN (AR1505) combined 62 ul of HSDNA (deg. herring sperm DNA, Sigma) with 2377 ul HBSS, 61.7 ul MTN, 2500 ul 2× media to give 5 ml final and 24 uM MTN and 10% w/w drug loading of MTN to HSDNA. […]
Plate#1 Media was aspirated and cells treated with 100 ul of either NAC-MTN, CD-MTN, or MTN at 24 uM MTN final or 12.3 ug/ml MTN in all samples. Samples containing MTN were incubated 4 hours, removed, and fluorescence taken at EX620/EM680. […]
Samples were incubated 4 hours, removed, and MTN fluorescence taken at EX620/EM680. […] Average MTN fluorescence was averaged from 6 wells. For each cell type, MTN fluorescence was highest in MTN treated cells, followed by CD-MTN, and lowest in NAC-MTN. […]
PLATE#2: Dispensed 50 ul from source plate into plate #2 to give 150 ul final vol 4.1 ug/ml, 8 uMfinal per well, pre-read fluorescence w samples (bkgd) incubated 5 hr, removed, replaced w/ media, read fluor. […]

O=C1c2c(O)ccc(O)c2C(=O)c2c(NCCNCCO)ccc(NCCNCCO)c21 [MTN, mitoxantrone]
% Tox (MCF7 cells): 79%
% reduction in fluorescence relative to MTN alone (MTN = 0%) (3T3; Plate#1, 24 uM MTN, 4 hours): 0%
% reduction in fluorescence relative to MTN alone (MTN = 0%) (3T3; Plate#2, 8 uM MTN): 0%
